From patent US9748489B2, “Copolymer and organic solar cell comprising same” (LG CHEM, LTD., priority 2013, dated 2017) come the findings set out here.

Molecules are shown by their SMILES. Values after ≈ are worked out from the molar mass of the structure shown.

The data set is described as follows: Solubility of each monomer in chlorobenzene at room temperature. The class given is physicochemical. From the text:
The term “solubility of the unit” as used herein means measurement of the solubility in a solution of each unit monomer at room temperature.

As usually defined, the Solubility is the concentration that dissolves in the medium under given conditions.

Take `Brc1ccc(-c2ccc(-c3ccc(Br)s3)c3nsnc23)s1`: the Solubility amounted to 5000 µg/mL (≈ 10.9 mM).
